Data from US11122807B2, “Herbicidal mixtures comprising L-glufosinate or its salt and a second herbicide” (BASF SE, priority 2017, dated 2021).

Test system: LOLMU (Lolium multiflorum)
Assay: Greenhouse post-emergence herbicidal test, scale 0 to 100, synergism by Colby's equation
Type: in vivo
Source text: Synergism can be described as an interaction where the combined effect of two or more compounds is greater than the sum of the individual effects of each of the compounds. The presence of a synergistic effect in terms of percent control, between two mixing partners (X and Y) can be calculated using the Colby equation (Colby, S. R., 1967, Calculating Synergistic and Antagonistic Responses in Herbicide Combinations, Weeds, 15, 21-22):
When the observed combined control effect is greater than the expected (calculated) combined control effect (E), then the combined effect is synergistic.
However, the weed control afforded by the compounds, mixtures or compositions is not limited to these species. The analysis of synergism or antagonism between the mixtures or compositions was determined using Colby's equation.
The culture containers used were plastic flowerpots containing loamy sand with approximately 3.0% of humus as the substrate. The seeds of the test plants were sown separately for each species and/or resistant biotype. For the pre-emergence treatment, the active ingredients, which had been suspended or emulsified in water, were applied directly after sowing by means of finely distributing nozzles. The containers were irrigated gently to promote germination and growth and subsequently covered with transparent plastic hoods until the plants had rooted. This cover caused uniform germination of the test plants, unless this had been impaired by the active ingredients. For the post-emergence treatment, the test plants were first grown to a height of 3 to 15 cm, depending on the plant habit, and only then treated with the active ingredients which had been suspended or emulsified in water. For this purpose, the test plants were either sown directly and grown in the same containers, or they were first grown separately as seedlings and transplanted into the test containers a few days prior to treatment. Depending on the species, the plants were kept at 10-25° C. or 20-35° C., respectively. The test period extended to 20 days after treatment. During this time, the plants were tended, and their response to the individual treatments was evaluated. The evaluation was carried out by using a scale from 0 to 100. 100 means no emergence of the plants or complete destruction of at least the above-ground parts, and 0 means no damage, or normal course of growth. Data shown are the mean of two replications.
L-Glufosinate: 5% EC formulation
Triaziflam: 5% EC formulation
Methiozolin: 250 g/l SC formulation

`Cc1cc(C)cc(OCC(C)Nc2nc(N)nc(C(C)(C)F)n2)c1` (stereo not drawn) [triaziflam] was tested, and the “Herbicidal activity against LOLMU, Found” value (triaziflam alone 125 g ai/ha, scale 0-100, Example 1) was 10 and the “Herbicidal activity against LOLMU, Found” value (triaziflam alone 250 g ai/ha, scale 0-100, Example 1) was 55.
`Cc1ccsc1C1=NOC(C)(COCc2c(F)cccc2F)C1` (stereo not drawn) [methiozoline, methiozolin] was tested, and the “Herbicidal activity against LOLMU, Found” value (methiozoline alone 125 g ai/ha, scale 0-100, Example 2) was 0 and the “Herbicidal activity against LOLMU, Found” value (methiozoline alone 250 g ai/ha, scale 0-100, Example 2) was 25.
`CP(=O)(O)CC[C@H](N)C(=O)O` [L-Glufosinate, (2S)-2-amino-4-[hydroxy(methyl)phosphinoyl]butyric acid] was tested, and the “Herbicidal activity against LOLMU, Found” value (L-Glufosinate alone 75 g ai/ha, scale 0-100 (100 = complete destruction), Example 1) was 0 and the “Herbicidal activity against LOLMU, Found” value (L-Glufosinate alone 75 g ai/ha, scale 0-100, Example 2) was 0.
